Reference: ChEMBL document CHEMBL1152288, “Characterization of thien-2-yl 1S,2R-milnacipran analogues as potent norepinephrine/serotonin transporter inhibitors for the treatment of neuropathic pain” (J Med Chem, 2008)
Calls of active or inactive are those of the source. The rule behind the calls is not given here.

What was measured:
[1] = Ratio of drug level in brain to plasma in Sprague-Dawley rat at 30 mg/kg, po after 1 hr; assay type: ADME, organism-based; set-up: dose 30 mg/kg, route oral
[2] = Tmax in Sprague-Dawley rat at 30 mg/kg, po; assay type: ADME, organism-based; set-up: dose 30 mg/kg, route oral; conditions: in vivo
Rattus norvegicus [3] = assay: Antinociceptive activity in CD rat assessed as reduction in number of hind paw flinching at 60 mg/kg, po by formalin test; assay type: functional; set-up: scale not given: the % may be the effect or the level left
in vitro = conditions: human, Caco-2
Description: Apparent permeability from apical to basolateral side of the human Caco-2 cells

[4] = Metabolic stability in rat liver microsomes assessed as systemic clearance at 1 uM after 15 mins by LC-MS/MS analysis; assay type: ADME, Microsome
[5] = Drug level in Sprague-Dawley rat brain at 30 mg/kg, po after 4 hrs; assay type: ADME, organism-based; set-up: dose 30 mg/kg, route oral; conditions: read-out: Drug uptake
[6] = AUC in Sprague-Dawley rat at 30 mg/kg, po; assay type: ADME, organism-based; set-up: dose 30 mg/kg, route oral; conditions: plasma
[7] = Ratio of drug level in brain to plasma in Sprague-Dawley rat at 30 mg/kg, po after 4 hrs; assay type: ADME, organism-based; set-up: dose 30 mg/kg, route oral
[8] = target: Sodium-dependent noradrenaline transporter (Homo sapiens, UniProt P23975); assay: biochemical
Sequence of Sodium-dependent noradrenaline transporter (P23975 whole entry): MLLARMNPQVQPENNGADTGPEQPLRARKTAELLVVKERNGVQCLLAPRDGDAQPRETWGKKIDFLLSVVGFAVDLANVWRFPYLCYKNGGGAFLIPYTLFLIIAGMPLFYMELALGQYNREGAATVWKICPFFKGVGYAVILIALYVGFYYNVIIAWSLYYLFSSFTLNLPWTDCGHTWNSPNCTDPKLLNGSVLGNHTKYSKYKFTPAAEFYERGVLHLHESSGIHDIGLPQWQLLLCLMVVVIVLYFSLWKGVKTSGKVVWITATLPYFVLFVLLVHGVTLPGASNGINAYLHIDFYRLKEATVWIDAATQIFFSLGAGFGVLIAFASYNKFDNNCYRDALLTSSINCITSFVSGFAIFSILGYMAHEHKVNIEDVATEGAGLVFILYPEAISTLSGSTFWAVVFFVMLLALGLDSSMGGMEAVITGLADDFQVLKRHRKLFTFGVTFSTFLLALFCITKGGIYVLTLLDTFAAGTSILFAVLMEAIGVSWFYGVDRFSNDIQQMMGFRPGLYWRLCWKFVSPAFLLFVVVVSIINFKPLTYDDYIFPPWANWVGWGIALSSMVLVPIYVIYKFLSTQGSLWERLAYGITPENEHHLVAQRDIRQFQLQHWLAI
Description: Displacement of Levo[ring-2,5,6-3H]norepinephrine from human cloned NET expressed in HEK293 cells by microplate scintillation counter

[9] = Cmax in Sprague-Dawley rat at 30 mg/kg, po; assay type: ADME, organism-based; set-up: dose 30 mg/kg, route oral; conditions: in vivo
[10] = Drug level in Sprague-Dawley rat brain at 30 mg/kg, po after 1 hr; assay type: ADME, organism-based; set-up: dose 30 mg/kg, route oral; conditions: read-out: Drug uptake
[11] = target: Sodium-dependent serotonin transporter (Rattus norvegicus, UniProt P31652); assay type: cell-based, HEK293
Sequence of Sodium-dependent serotonin transporter (Rattus norvegicus, UniProt P31652) (P31652 whole entry): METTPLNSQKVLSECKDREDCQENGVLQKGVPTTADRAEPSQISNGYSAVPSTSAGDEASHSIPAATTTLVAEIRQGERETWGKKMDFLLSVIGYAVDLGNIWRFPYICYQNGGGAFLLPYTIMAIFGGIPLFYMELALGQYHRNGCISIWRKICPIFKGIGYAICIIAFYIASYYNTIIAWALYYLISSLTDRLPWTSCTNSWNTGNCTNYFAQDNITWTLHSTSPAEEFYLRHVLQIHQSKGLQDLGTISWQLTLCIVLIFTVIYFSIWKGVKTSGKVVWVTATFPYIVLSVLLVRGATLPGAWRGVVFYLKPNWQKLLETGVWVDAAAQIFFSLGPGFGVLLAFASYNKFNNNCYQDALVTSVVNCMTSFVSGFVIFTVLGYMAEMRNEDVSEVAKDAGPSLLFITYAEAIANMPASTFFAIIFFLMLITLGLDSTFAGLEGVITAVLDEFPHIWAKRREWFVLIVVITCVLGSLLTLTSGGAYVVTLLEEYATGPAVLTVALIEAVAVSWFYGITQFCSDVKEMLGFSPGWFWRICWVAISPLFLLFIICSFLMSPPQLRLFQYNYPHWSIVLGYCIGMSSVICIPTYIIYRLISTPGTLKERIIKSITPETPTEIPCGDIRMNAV

[12] = target: Sodium-dependent serotonin transporter (Homo sapiens, UniProt P31645); assay: biochemical
Sequence of Sodium-dependent serotonin transporter (Homo sapiens, UniProt P31645) (P31645 whole entry): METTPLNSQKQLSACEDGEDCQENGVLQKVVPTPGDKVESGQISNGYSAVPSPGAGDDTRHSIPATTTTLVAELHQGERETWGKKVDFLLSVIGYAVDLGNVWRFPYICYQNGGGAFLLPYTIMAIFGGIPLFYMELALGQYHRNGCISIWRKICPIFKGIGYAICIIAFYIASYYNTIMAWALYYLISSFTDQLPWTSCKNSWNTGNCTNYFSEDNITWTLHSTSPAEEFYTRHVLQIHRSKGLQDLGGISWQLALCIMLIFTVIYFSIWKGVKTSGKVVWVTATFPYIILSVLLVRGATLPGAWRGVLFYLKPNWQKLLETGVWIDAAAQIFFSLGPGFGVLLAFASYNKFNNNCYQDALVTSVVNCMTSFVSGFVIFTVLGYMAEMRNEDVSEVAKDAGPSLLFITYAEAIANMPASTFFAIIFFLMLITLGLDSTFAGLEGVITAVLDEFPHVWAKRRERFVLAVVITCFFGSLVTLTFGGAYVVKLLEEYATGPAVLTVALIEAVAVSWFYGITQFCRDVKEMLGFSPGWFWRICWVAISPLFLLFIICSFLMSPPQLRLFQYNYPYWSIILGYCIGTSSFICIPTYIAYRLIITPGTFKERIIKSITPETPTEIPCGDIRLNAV
Description: Displacement of [alpha,beta-3H(N)]-5-hydroxytryptamine from human cloned SERT expressed in HEK293 cells by microplate scintillation counter

[13] = Metabolic stability in human liver microsomes assessed as systemic clearance at 1 uM after 15 mins by LC-MS/MS analysis; assay type: ADME, Microsome
Transporter = Transporter (Rattus norvegicus, UniProt Q63380); assay: biochemical
Sequence of Transporter (Q63380 whole entry): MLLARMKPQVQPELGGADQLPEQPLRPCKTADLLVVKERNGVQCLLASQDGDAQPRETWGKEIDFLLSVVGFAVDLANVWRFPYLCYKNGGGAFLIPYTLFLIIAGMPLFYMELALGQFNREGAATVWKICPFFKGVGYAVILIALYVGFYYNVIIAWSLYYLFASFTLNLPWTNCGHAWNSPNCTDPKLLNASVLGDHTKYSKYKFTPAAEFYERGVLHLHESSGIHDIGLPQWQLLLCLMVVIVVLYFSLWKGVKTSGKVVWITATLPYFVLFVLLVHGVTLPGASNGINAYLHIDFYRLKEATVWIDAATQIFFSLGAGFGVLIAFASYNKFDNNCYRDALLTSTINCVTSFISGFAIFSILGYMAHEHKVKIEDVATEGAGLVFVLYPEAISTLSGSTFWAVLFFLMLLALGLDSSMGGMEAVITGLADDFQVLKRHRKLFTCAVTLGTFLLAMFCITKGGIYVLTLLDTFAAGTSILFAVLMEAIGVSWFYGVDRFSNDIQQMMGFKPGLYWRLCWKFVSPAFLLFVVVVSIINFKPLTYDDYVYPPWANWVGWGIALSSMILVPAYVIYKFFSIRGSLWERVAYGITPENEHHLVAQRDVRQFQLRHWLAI
Description: Displacement of Levo[ring-2,5,6-3H]norepinephrine from rat synaptosomal NET expressed in HEK293 cells by microplate scintillation counter

[14] = Apparent elimination half life in Sprague-Dawley rat at 30 mg/kg, po; assay type: ADME, organism-based; set-up: dose 30 mg/kg, route oral; conditions: in vivo, read-out: beta t1/2 (converted)
[15] = target: Sodium-dependent dopamine transporter (Homo sapiens, UniProt Q01959); assay: biochemical
Sequence of Sodium-dependent dopamine transporter (Homo sapiens, UniProt Q01959) (Q01959 whole entry): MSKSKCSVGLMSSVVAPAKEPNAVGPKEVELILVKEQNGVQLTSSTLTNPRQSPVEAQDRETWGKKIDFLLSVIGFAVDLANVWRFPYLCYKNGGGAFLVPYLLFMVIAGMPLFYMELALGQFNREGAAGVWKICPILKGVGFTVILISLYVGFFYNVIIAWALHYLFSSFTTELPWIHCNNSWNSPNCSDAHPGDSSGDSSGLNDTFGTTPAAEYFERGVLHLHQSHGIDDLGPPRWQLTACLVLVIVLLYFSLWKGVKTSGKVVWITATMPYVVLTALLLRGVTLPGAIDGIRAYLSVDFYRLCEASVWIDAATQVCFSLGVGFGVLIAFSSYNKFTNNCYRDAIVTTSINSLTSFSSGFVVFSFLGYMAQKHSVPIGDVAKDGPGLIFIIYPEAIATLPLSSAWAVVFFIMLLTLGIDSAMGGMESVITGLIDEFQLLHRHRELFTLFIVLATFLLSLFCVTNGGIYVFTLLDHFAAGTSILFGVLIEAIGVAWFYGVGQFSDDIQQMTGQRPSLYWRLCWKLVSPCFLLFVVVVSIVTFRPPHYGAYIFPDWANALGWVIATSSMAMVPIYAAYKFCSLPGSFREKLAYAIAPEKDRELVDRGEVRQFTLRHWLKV
Description: Displacement of 3,4-[ring-2,5,6-3H]dihydroxyphenylethylamine from human cloned DAT expressed in HEK293 cells by microplate scintillation counter

[16] = target: Sodium-dependent dopamine transporter (Rattus norvegicus, UniProt P23977); assay: biochemical
Sequence of Sodium-dependent dopamine transporter (Rattus norvegicus, UniProt P23977) (P23977 whole entry): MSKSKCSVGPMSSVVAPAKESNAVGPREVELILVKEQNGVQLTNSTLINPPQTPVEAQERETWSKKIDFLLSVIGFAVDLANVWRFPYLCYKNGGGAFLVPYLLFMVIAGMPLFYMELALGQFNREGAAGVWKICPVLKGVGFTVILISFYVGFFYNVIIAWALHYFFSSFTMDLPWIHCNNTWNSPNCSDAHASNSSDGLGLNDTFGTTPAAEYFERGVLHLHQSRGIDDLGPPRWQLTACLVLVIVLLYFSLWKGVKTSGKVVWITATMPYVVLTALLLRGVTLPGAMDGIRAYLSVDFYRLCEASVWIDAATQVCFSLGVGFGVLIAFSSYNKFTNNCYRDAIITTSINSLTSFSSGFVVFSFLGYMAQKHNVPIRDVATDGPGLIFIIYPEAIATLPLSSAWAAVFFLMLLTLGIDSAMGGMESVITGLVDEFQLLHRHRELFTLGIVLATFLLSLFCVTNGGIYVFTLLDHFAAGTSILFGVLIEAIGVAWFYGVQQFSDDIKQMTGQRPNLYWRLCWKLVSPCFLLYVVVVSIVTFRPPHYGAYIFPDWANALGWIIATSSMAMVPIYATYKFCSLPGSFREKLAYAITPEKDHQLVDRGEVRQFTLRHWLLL
Description: Displacement of 3,4-[ring-2,5,6-3H]dihydroxyphenylethylamine from rat synaptosomal DAT expressed in HEK293 cells by microplate scintillation counter

[17] = Lipophilicity, log D of the compound; assay type: physicochemical; conditions: octanol/water
[18] = Partition coefficient, log P of the compound; assay type: physicochemical; conditions: octanol/water
[19] = Apparent oral clearance in Sprague-Dawley rat at 30 mg/kg, po; assay type: ADME, organism-based; set-up: dose 30 mg/kg, route oral; conditions: in vivo
[20] = AUC in monkey at 5 mg/kg, iv or 30 mg/kg, po; assay type: ADME, organism-based, Macaca mulatta; conditions: rhesus monkey, plasma
[21] = Renal clearance in Beagle dog at 5 mg/kg, iv or 30 mg/kg, po; assay type: ADME, organism-based, Canis lupus familiaris, Kidney; conditions: in vivo, read-out: CL_renal
[22] = Volume of distribution at steady state in Beagle dog at 5 mg/kg, iv or 30 mg/kg, po; assay type: ADME, organism-based, Canis lupus familiaris; conditions: in vivo, read-out: Vdss
[23] = Plasma clearance in monkey at 5 mg/kg, iv or 30 mg/kg, po; assay type: ADME, organism-based, Macaca mulatta; conditions: rhesus monkey
[24] = Tmax in Beagle dog at 5 mg/kg, iv or 30 mg/kg, po; assay type: ADME, organism-based, Canis lupus familiaris; conditions: in vivo
[25] = Bioavailability in monkey at 5 mg/kg, iv or 30 mg/kg, po; assay type: ADME, organism-based, Macaca mulatta; conditions: rhesus monkey, in vivo
[26] = Volume of distribution at steady state in monkey at 5 mg/kg, iv or 30 mg/kg, po; assay type: ADME, organism-based, Macaca mulatta; conditions: rhesus monkey, in vivo, read-out: Vdss
[27] = Cmax in Beagle dog at 5 mg/kg, iv or 30 mg/kg, po; assay type: ADME, organism-based, Canis lupus familiaris; conditions: in vivo
[28] = Plasma clearance in Beagle dog at 5 mg/kg, iv or 30 mg/kg, po; assay type: ADME, organism-based, Canis lupus familiaris
[29] = Half life in monkey at 5 mg/kg, iv or 30 mg/kg, po; assay type: ADME, organism-based, Macaca mulatta; conditions: rhesus monkey, in vivo
[30] = Bioavailability in Beagle dog at 5 mg/kg, iv or 30 mg/kg, po; assay type: ADME, organism-based, Canis lupus familiaris; conditions: in vivo
[31] = Tmax in monkey at 5 mg/kg, iv or 30 mg/kg, po; assay type: ADME, organism-based, Macaca mulatta; conditions: rhesus monkey, in vivo
[32] = Cmax in monkey at 5 mg/kg, iv or 30 mg/kg, po; assay type: ADME, organism-based, Macaca mulatta; conditions: rhesus monkey, in vivo
[33] = Half life in Beagle dog at 5 mg/kg, iv or 30 mg/kg, po; assay type: ADME, organism-based, Canis lupus familiaris; conditions: in vivo
[34] = Renal clearance in monkey at 5 mg/kg, iv or 30 mg/kg, po; assay type: ADME, organism-based, Macaca mulatta, Kidney; conditions: rhesus monkey, in vivo; read-out: CL_renal
[35] = AUC in Beagle dog at 5 mg/kg, iv or 30 mg/kg, po; assay type: ADME, organism-based, Canis lupus familiaris; conditions: plasma
[36] = target: Voltage-gated inwardly rectifying potassium channel KCNH2 (Homo sapiens, UniProt Q12809)
Sequence of Voltage-gated inwardly rectifying potassium channel KCNH2 (Q12809 whole entry): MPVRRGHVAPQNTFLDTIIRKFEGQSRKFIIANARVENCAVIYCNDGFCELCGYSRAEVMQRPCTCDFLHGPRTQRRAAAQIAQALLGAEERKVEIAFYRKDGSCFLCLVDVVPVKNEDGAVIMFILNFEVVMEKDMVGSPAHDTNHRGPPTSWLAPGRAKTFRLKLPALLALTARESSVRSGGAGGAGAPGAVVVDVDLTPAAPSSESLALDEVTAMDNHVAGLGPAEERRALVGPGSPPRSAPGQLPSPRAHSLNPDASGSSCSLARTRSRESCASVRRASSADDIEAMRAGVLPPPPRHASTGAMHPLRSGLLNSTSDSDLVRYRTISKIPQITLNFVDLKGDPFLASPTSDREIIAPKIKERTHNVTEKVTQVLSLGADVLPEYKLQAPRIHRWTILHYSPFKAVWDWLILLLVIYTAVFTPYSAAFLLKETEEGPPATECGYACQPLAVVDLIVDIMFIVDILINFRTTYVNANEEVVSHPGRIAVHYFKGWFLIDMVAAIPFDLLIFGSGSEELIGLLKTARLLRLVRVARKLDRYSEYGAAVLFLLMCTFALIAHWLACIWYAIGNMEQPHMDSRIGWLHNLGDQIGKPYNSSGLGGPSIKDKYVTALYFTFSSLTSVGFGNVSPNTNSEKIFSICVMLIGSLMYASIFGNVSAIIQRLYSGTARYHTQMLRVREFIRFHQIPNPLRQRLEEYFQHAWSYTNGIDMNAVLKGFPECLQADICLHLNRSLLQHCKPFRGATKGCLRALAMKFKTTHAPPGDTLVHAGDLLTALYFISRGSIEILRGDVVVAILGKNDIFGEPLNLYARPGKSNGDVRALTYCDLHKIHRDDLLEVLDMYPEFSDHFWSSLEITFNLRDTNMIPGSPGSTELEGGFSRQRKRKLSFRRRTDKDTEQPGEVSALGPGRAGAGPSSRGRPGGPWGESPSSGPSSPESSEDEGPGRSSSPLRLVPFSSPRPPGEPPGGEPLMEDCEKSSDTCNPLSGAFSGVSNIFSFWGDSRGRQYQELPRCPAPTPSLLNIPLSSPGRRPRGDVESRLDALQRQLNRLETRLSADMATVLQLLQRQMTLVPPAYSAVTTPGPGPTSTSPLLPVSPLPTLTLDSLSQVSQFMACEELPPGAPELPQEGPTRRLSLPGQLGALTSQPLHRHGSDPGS
Description: Inhibition of human ERG expressed in HEK293 cells by patch-clamp method

[37] = AUC in Sprague-Dawley rat at 2.5 mg/kg, iv; assay type: ADME, organism-based; set-up: dose 2.5 mg/kg, route intravenous; conditions: plasma
Rattus norvegicus [38] = organism: Rattus norvegicus; assay: Reversal of pin-prick-induced neuropathic mechanical hyperalgesia in Harlan Sprague-Dawley rat sciatic nerve ligation model; assay type: functional, organism-based
Rattus norvegicus [39] = assay: Antinociceptive activity in CD rat assessed as reduction in number of hind paw flinching at 100 mg/kg, po by formalin test; assay type: functional, organism-based; set-up: dose 100 mg/kg
[40] = Apparent elimination half life in Sprague-Dawley rat at 10 mg/kg, po; assay type: ADME, organism-based; set-up: dose 10 mg/kg, route oral; conditions: in vivo, read-out: beta t1/2 (converted)
[41] = Mean residence time in Sprague-Dawley rat at 2.5 mg/kg, iv; assay type: ADME, organism-based; set-up: dose 2.5 mg/kg, route intravenous; conditions: in vivo
[42] = Apparent oral clearance in Sprague-Dawley rat at 10 mg/kg, po; assay type: ADME, organism-based; set-up: dose 10 mg/kg, route oral; conditions: in vivo
[43] = Cmax in Sprague-Dawley rat at 10 mg/kg, po; assay type: ADME, organism-based; set-up: dose 10 mg/kg, route oral; conditions: in vivo
in vivo [44] = conditions: Sprague-Dawley, rat, brain/plasma, po, 10 mg/kg
Description: Ratio of drug level in brain to plasma in Sprague-Dawley rat at 10 mg/kg, po after 4 hrs

[45] = Half life in Sprague-Dawley rat at 2.5 mg/kg, iv; assay type: ADME, organism-based; set-up: dose 2.5 mg/kg, route intravenous; conditions: in vivo
[46] = AUC in Sprague-Dawley rat at 10 mg/kg, po; assay type: ADME, organism-based; set-up: dose 10 mg/kg, route oral; conditions: plasma
[47] = Tmax in Sprague-Dawley rat at 10 mg/kg, po; assay type: ADME, organism-based; set-up: dose 10 mg/kg, route oral; conditions: in vivo
in vivo [48] = conditions: Sprague-Dawley, rat, brain/plasma, po, 10 mg/kg; remark: listed apart in the source
Description: Ratio of drug level in brain to plasma in Sprague-Dawley rat at 10 mg/kg, po after 1 hr

[49] = Volume of distribution at steady state in Sprague-Dawley rat at 2.5 mg/kg, iv; assay type: ADME, organism-based; set-up: dose 2.5 mg/kg, route intravenous; conditions: in vivo, read-out: Vdss
[50] = Bioavailability in Sprague-Dawley rat at 2.5 mg/kg, iv; assay type: ADME, organism-based; conditions: in vivo
[51] = Volume of distribution in Sprague-Dawley rat at 2.5 mg/kg, iv; assay type: ADME, organism-based; set-up: dose 2.5 mg/kg, route intravenous; conditions: in vivo
[52] = Plasma clearance in Sprague-Dawley rat at 2.5 mg/kg, iv; assay type: ADME, organism-based; set-up: dose 2.5 mg/kg, route intravenous

Description for physchem: Dissociation constant, pKa of the compound

SMILES	Activity (Rattus norvegicus [3])	Papp A→B (in vitro)	CLhep predicted at 1 µM [4]	pKa (physchem)	IC50 [8]	IC50 [11]	IC50 [12]	CLhep predicted at 1 µM [13]	IC50 (Transporter)	IC50 [15]	IC50 [16]	logD [17]	logP [18]	also measured
NC[C@@H]1C[C@@]1(C(=O)N1Cc2ccccc2C1)c1cccs1	56%	8.4 ×10⁻⁶ cm/s	64 mL/min/kg	9.5	21 nM	25 nM	13 nM	8.8 mL/min/kg	15 nM	5540 nM	2000 nM	0.5	2.2	Kp at 1 h [1]: 1; Tmax [2]: 1.1 h; concentration at 4 h [5]: 24 ng/g; AUC [6]: 272 ng·h/mL; Kp at 4 h [7]: 1.8; Cmax [9]: 58 ng/mL; concentration at 1 h [10]: 28 ng/g; half-life [14]: 2.3 h; CL/F [19]: 1840 mL/min/kg
C=CCN(CC)C(=O)[C@@]1(c2ccsc2)C[C@H]1CN	56%	–	–	–	–	27 nM	–	–	6.4 nM	–	> 10000 nM	–	–	–
C=C(F)CN(CC)C(=O)[C@@]1(c2cccs2)C[C@H]1CN.Cl	–	–	–	–	–	–	–	–	–	–	–	–	–	AUC [20]: 9050 ng·h/mL; CL renal [21]: 2.2 mL/min/kg; Vd [22]: 2.4 L/kg; clearance [23]: 34 mL/min/kg; Tmax [24]: 1.2 h; bioavailability [25]: 70%; Vd [26]: 4.4 L/kg; Cmax [27]: 5570 ng/mL; clearance [28]: 10.8 mL/min/kg; half-life [29]: 4.3 h; bioavailability [30]: 109%; Tmax [31]: 2.3 h; Cmax [32]: 2440 ng/mL; half-life [33]: 3.5 h; CL renal [34]: 6 mL/min/kg; AUC [35]: 47500 ng·h/mL
C=CCN(Cc1nccs1)C(=O)[C@@]1(c2cccs2)C[C@H]1CN	–	6.4 ×10⁻⁶ cm/s	47 mL/min/kg	9.4	13 nM	–	16 nM	7 mL/min/kg	–	> 10000 nM	–	-0.4	1.6	–
C=CCN(C(=O)[C@@]1(c2cccs2)C[C@H]1CN)C1CC1	–	17.8 ×10⁻⁶ cm/s	63 mL/min/kg	–	17 nM	–	45 nM	5 mL/min/kg	–	> 10000 nM	–	–	–	IC50 [36]: > 10000 nM
C=CCN(CC)C(=O)[C@@]1(c2cccs2)C[C@H]1CN	–	13.7 ×10⁻⁶ cm/s	62 mL/min/kg	–	15 nM	–	140 nM	11 mL/min/kg	–	> 10000 nM	–	–	–	–
CCN(CC)C(=O)[C@]1(c2ccccc2)C[C@H]1CN	56%	–	24 mL/min/kg	9.6	–	28 nM	–	5 mL/min/kg	16 nM	–	20000 nM	-0.2	1.6	AUC [37]: 897 ng·h/mL; Activity (Rattus norvegicus [38]): Dose-dependent effect; Activity (Rattus norvegicus [39]): Active; half-life [40]: 1.3 h; MRT [41]: 0.52 h; CL/F [42]: 294 mL/min/kg; Cmax [43]: 232 ng/mL; Kp at 4 h (in vivo [44]): 0.86; half-life [45]: 0.8 h; AUC [46]: 566 ng·h/mL; Tmax [47]: 0.3 h; Kp at 1 h (in vivo [48]): 0.42; Vd [49]: 2 L/kg; bioavailability [50]: 16%; Vd [51]: 4.3 L/kg; clearance [52]: 58 mL/min/kg
